Measured values from ChEMBL document CHEMBL3421553, “Design, synthesis, and biological evaluation of benzoselenazole-stilbene hybrids as multi-target-directed anti-cancer agents” (Eur J Med Chem, 2015).

Columns and labels:
Bel-7402 [1] = experiment: Induction of apoptosis in human Bel7402 cells assessed as live cells at 3 uM after 48 hrs by flow cytometry (reference value: 98.65%); format: functional
[2] = Inhibition of rat liver TrxR assessed as increase in absorbance by DTNB assay
Bel-7402 [3] = experiment: Induction of apoptosis in human Bel7402 cells assessed as necrotic cells at 3 uM after 48 hrs by flow cytometry (reference value: 0.19%); format: functional
Bel-7402 [4] = experiment: Induction of apoptosis in human Bel7402 cells assessed as detection error cells at 3 uM after 48 hrs by flow cytometry (reference value: 0.43%); format: functional
Bel-7402 [5] = experiment: Induction of apoptosis in human Bel7402 cells assessed as live cells at 0.5 uM after 48 hrs by flow cytometry (reference value: 98.65%); format: functional
[6] = Cell cycle arrest in human Bel7402 cells assessed as cells accumulation at G2/M phase at 5 uM after 48 hrs by flow cytometry (reference value: 16.61%); format: functional, cell-based; conditions: Bel-7402
Bel-7402 [7] = experiment: Induction of apoptosis in human Bel7402 cells assessed as necrotic cells at 5 uM after 48 hrs by flow cytometry (reference value: 0.19%); format: functional
A549 = experiment: Antiproliferative activity against human A549 cells assessed as cell viability after 48 hrs by MTT assay; format: functional, cell-based; conditions: A549, 48 h
Bel-7402 [8] = experiment: Induction of apoptosis in human Bel7402 cells assessed as detection error cells at 0.5 uM after 48 hrs by flow cytometry (reference value: 0.43%); format: functional
[9] = Cell cycle arrest in human Bel7402 cells assessed as cells accumulation at Sub-G1 phase at 3 uM after 48 hrs by flow cytometry (reference value: 1.47%); format: functional, cell-based; conditions: Bel-7402
[10] = Cell cycle arrest in human Bel7402 cells assessed as cells accumulation at G2/M phase at 1 uM after 48 hrs by flow cytometry (reference value: 16.61%); format: functional, cell-based; conditions: Bel-7402
[11] = Cell cycle arrest in human Bel7402 cells assessed as cells accumulation at Sub-G1 phase at 1 uM after 48 hrs by flow cytometry (reference value: 1.47%); format: functional, cell-based; conditions: Bel-7402
[12] = Cell cycle arrest in human Bel7402 cells assessed as cells accumulation at Sub-G1 phase at 5 uM after 48 hrs by flow cytometry (reference value: 1.47%); format: functional, cell-based; conditions: Bel-7402
[13] = Cell cycle arrest in human Bel7402 cells assessed as cells accumulation at G2/M phase at 0.5 uM after 48 hrs by flow cytometry (reference value: 16.61%); format: functional, cell-based; conditions: Bel-7402
[14] = Antiproliferative activity against human Bel7402 cells assessed as cell viability after 48 hrs by MTT assay; format: functional, cell-based; conditions: Bel-7402, 48 h
Bel-7402 [15] = experiment: Induction of apoptosis in human Bel7402 cells assessed as necrotic cells at 1 uM after 48 hrs by flow cytometry (reference value: 0.19%); format: functional
[16] = Cell cycle arrest in human Bel7402 cells assessed as cells accumulation at S phase at 0.5 uM after 48 hrs by flow cytometry (reference value: 13.99%); format: functional, cell-based; conditions: Bel-7402
[17] = Cell cycle arrest in human Bel7402 cells assessed as cells accumulation at S phase at 1 uM after 48 hrs by flow cytometry (reference value: 13.99%); format: functional, cell-based; conditions: Bel-7402
Bel-7402 [18] = experiment: Induction of apoptosis in human Bel7402 cells assessed as live cells at 5 uM after 48 hrs by flow cytometry (reference value: 98.65%); format: functional
HeLa = experiment: Antiproliferative activity against human HeLa cells assessed as cell viability after 48 hrs by MTT assay; format: functional, cell-based
[19] = Cell cycle arrest in human Bel7402 cells assessed as cells accumulation at G1 phase at 5 uM after 48 hrs by flow cytometry (reference value: 62.60%); format: functional, cell-based; conditions: Bel-7402
[20] = Cell cycle arrest in human Bel7402 cells assessed as cells accumulation at S phase at 5 uM after 48 hrs by flow cytometry (reference value: 13.99%); format: functional, cell-based; conditions: Bel-7402
Bel-7402 [21] = experiment: Induction of apoptosis in human Bel7402 cells assessed as detection error cells at 5 uM after 48 hrs by flow cytometry (reference value: 0.43%); format: functional
[22] = Cell cycle arrest in human Bel7402 cells assessed as cells accumulation at G1 phase at 3 uM after 48 hrs by flow cytometry (reference value: 62.60%); format: functional, cell-based; conditions: Bel-7402
Bel-7402 [23] = experiment: Induction of apoptosis in human Bel7402 cells assessed as live cells at 1 uM after 48 hrs by flow cytometry (reference value: 98.65%); format: functional
Bel-7402 [24] = experiment: Induction of apoptosis in human Bel7402 cells assessed as detection error cells at 1 uM after 48 hrs by flow cytometry (reference value: 0.43%); format: functional
Bel-7402 [25] = experiment: Induction of apoptosis in human Bel7402 cells assessed as apoptotic cells at 5 uM after 48 hrs by flow cytometry (reference value: 0.73%); format: functional
[26] = Cell cycle arrest in human Bel7402 cells assessed as cells accumulation at G1 phase at 1 uM after 48 hrs by flow cytometry (reference value: 62.60%); format: functional, cell-based; conditions: Bel-7402
MCF7 = experiment: Antiproliferative activity against human MCF7 cells assessed as cell viability after 48 hrs by MTT assay; format: functional, cell-based; conditions: MCF7, 48 h
[27] = Cell cycle arrest in human Bel7402 cells assessed as cells accumulation at Sub-G1 phase at 0.5 uM after 48 hrs by flow cytometry (reference value: 1.47%); format: functional, cell-based; conditions: Bel-7402
Bel-7402 [28] = experiment: Induction of apoptosis in human Bel7402 cells assessed as apoptotic cells at 1 uM after 48 hrs by flow cytometry (reference value: 0.73%); format: functional
[29] = Aqueous solubility of the compound in phosphate buffer at pH 7.4; format: physicochemical
[30] = Cell cycle arrest in human Bel7402 cells assessed as cells accumulation at G2/M phase at 3 uM after 48 hrs by flow cytometry (reference value: 16.61%); format: functional, cell-based; conditions: Bel-7402
Bel-7402 [31] = experiment: Induction of apoptosis in human Bel7402 cells assessed as necrotic cells at 0.5 uM after 48 hrs by flow cytometry (reference value: 0.19%); format: functional
[32] = Cell cycle arrest in human Bel7402 cells assessed as cells accumulation at S phase at 3 uM after 48 hrs by flow cytometry (reference value: 13.99%); format: functional, cell-based; conditions: Bel-7402
[33] = Cell cycle arrest in human Bel7402 cells assessed as cells accumulation at G1 phase at 0.5 uM after 48 hrs by flow cytometry (reference value: 62.60%); format: functional, cell-based; conditions: Bel-7402
Bel-7402 [34] = experiment: Induction of apoptosis in human Bel7402 cells assessed as apoptotic cells at 3 uM after 48 hrs by flow cytometry (reference value: 0.73%); format: functional
Bel-7402 [35] = experiment: Induction of apoptosis in human Bel7402 cells assessed as apoptotic cells at 0.5 uM after 48 hrs by flow cytometry (reference value: 0.73%); format: functional

## COc1ccc(/C=C/c2ccc(-n3[se]c4ccccc4c3=O)cc2)cc1OC
Bel-7402 [1]
  Activity: 55.41%
[2]
  IC50: 3.1 µM
Bel-7402 [3]
  Activity: 5.49%
Bel-7402 [4]
  Activity: 2.39%
Bel-7402 [5]
  Activity: 89.75%
[6]
  Activity: 44.2%
Bel-7402 [7]
  Activity: 5.26%
A549
  IC50: 1.53 µM
Bel-7402 [8]
  Activity: 2.22%
[9]
  Activity: 5.47%
[10]
  Activity: 33.8%
[11]
  Activity: 5.15%
[12]
  Activity: 6.69%
[13]
  Activity: 22.2%
[14]
  IC50: 1.01 µM
Bel-7402 [15]
  Activity: 3.04%
[16]
  Activity: 14%
[17]
  Activity: 6.93%
Bel-7402 [18]
  Activity: 38.16%
HeLa
  IC50: 1.52 µM
[19]
  Activity: 37%
[20]
  Activity: 8.32%
Bel-7402 [21]
  Activity: 2.95%
[22]
  Activity: 40.4%
Bel-7402 [23]
  Activity: 79.95%
Bel-7402 [24]
  Activity: 3.45%
Bel-7402 [25]
  Activity: 53.63%
[26]
  Activity: 49%
MCF7
  IC50: 3.37 µM
[27]
  Activity: 0.2%
Bel-7402 [28]
  Activity: 13.55%
[29]
  solubility: > 100 µM
[30]
  Activity: 42%
Bel-7402 [31]
  Activity: 1.29%
[32]
  Activity: 9.57%
[33]
  Activity: 55.8%
Bel-7402 [34]
  Activity: 36.71%
Bel-7402 [35]
  Activity: 6.73%
